Data: article PMC9030166, “Natural Phaeosphaeride A Derivatives Overcome Drug Resistance of Tumor Cells and Modulate Signaling Pathways” (Pharmaceuticals, 2022)

What was measured:
HCT-116 = assay: MTT cytotoxicity, HCT-116 colorectal cancer cells; type: cell-based, human; conditions: 48 h; for IC50: Homo sapiens, HCT-116, adhesive tumor culture
From the text: (§1) Cell cultures used in the work: adhesive cultures HBL-100 cells (cells of a normal mammary gland epithelium, immortalized by the SV40 virus and acquired tumorigenicity); MCF-7 breast cancer cells; PC-3 prostate adenocarcinoma cells; HCT-116 colorectal cancer cells; non-small cell lung cancer cells A549; human embryonic kidney cells HEK293; suspension cultures (NCI-H929 and RPMI8226 multiple myeloma cells), K562 chronic myeloid leukemia cells; THP-1 acute monocytic leukemia cells; and Jurkat acute T-cell leukemia cells. We also used several primary cultures of soft tissue sarcomas at 3–4passeges, kindly provided by T.I. Fetisov (The Ethics Committee of N.N. Blokhin NMRCO, protocol code 18-28-09095 and date of approval 28 September 2018).
(§2) Modifications of cell lines: K562/i-S9 is a clone obtained after transfection of K562 cells with the ABCB1 (MDR1) gene-encoding P-glycoprotein [36]. Cells HBL-100/Dox and K562/i-S9_Dox are cells obtained by long-term selection with increasing concentrations of doxorubicin (Sigma-Aldrich, St. Louis, MO, USA) from HBL-100 and K562/i-S9 cells, respectively. MCF-7, A594 cells, and primary cultures of soft tissue sarcomas were cultured in DMEM medium (PanEko, Russia), PC-3 and HCT-116 cells and all suspension cultures in RPMI1640 medium (PanEko, Russia) supplemented with 10% fetal bovine serum (GE Healthcare LifeSciences, USA), and gentamicin at a concentration of 40 μg/mL at 37 °C and 5% CO2.
(§3) Cells MCF-7, PC-3, A549, and HCT-116, and primary cultures of STSwere seeded in 96-well plates, 6 × 10^3 cells per well in 90 μL of culture medium. Suspension cultures were seeded at a concentration of 25 × 10^3 cells per well in 135 μL of medium. The test substances were dissolved in DMSO (Applichem, Council Bluffs, IA, USA) until a concentration of 1 × 10^−^2 M was obtained; for the subsequent dilution of the substances, a serum-free culture medium was used. The next day, for adhesive cultures, and on the same day, for suspension cultures, substances were added to the plates in a volume of 10 μL (adhesive cultures) and 15 μL (suspension cultures) per well at various concentrations; each concentration was added in 3–4 repetitions. The cells were cultured in the presence of substances for 48 h. Then, MTT reagent (PanEko, Moscow, Russia) was added to the wells at a concentration of 5 mg/mL in a volume of 20 μL per well. After 1.5–2 h, the medium with the reagent was removed, and the precipitate of the crystals of formazan was dissolved in 60 μL of DMSO. The optical density was determined using a Multiskan FC spectrophotometer (Thermo Scientific, Waltham, MA, USA) at a wavelength of 540 nm.
(§4) Based on the results of the experiments, a schedule was plotted of the dependence of the percentage of surviving cells (from control) on the concentration of the compound, and the sought concentration IC50 was calculated. The experiments were carried out in 3–4 times.

MCF-7 = assay: MTT cytotoxicity, MCF-7 breast cancer cells; type: cell-based; conditions: Homo sapiens, MCF7, adhesive tumor culture, 48 h
From the text: as §1, §2, §3, §4

PC3 = assay: MTT cytotoxicity, PC-3 prostate adenocarcinoma cells; type: cell-based, human; conditions: 48 h; for IC50: Homo sapiens, PC-3, adhesive tumor culture
From the text: as §1, §2, §3, §4

NCI-H929 = assay: MTT cytotoxicity, NCI-H929 multiple myeloma cells; type: cell-based; conditions: Homo sapiens, suspension culture, 48 h
From the text: as §1, §2, §3, §4

THP-1 = assay: MTT cytotoxicity, THP-1 acute monocytic leukemia cells; type: cell-based; conditions: Homo sapiens, suspension culture, 48 h
From the text: as §1, §2, §3, §4

K562 = assay: MTT cytotoxicity, K562 chronic myeloid leukemia cells; type: cell-based; conditions: Homo sapiens, K562, suspension culture, 48 h (Table 2)
From the text: as §1, §2, §3, §4

Akt (pSer473) = assay: MILLIPLEX MAP 9-Plex, Akt active form in A431 lysates; type: cell-based, human; conditions: A431 cell lysates, 10 μM, 1 h, M ± mx; control 76.4 ± 16.9
From the text: (§5) We used the MILLIPLEX MAP Multi-Pathway Magnetic Bead 9-Plex-Cell Signaling Multiplex Assay, which allows the simultaneous detection of nine phosphorylated proteins that are markers of the main intracellular signaling pathways (phosphorylation site is indicated in parentheses), a universal transcription factor that controls the expression of immune response genes; apoptosis and cell cycle NFκB (pS536); cAMP-dependent transcription factor (CREB (pS133); mitogen-activated kinase p38 (pT180/pY182); stress-activated protein kinase JNK (pT183/pY185); ribosomal […]; transcription factors STAT3 (pS727) and STAT5A/B (pY694/699); protein kinase B (Akt) (pS473); and kinase regulated by extracellular signals ERK1/2 (pT185/pY187).
(§6) The effect of various concentrations of PPA derivatives on the cell culture was studied using xCelligence RTCA equipment (AceaBioscience, San Diego, CA, USA). The concentration closest to the IC50 (10 μM) was chosen as the experimental concentration. The selected concentration of phaeosphaeride A derivatives allows for the assessment of the early effect of compounds on cells and compares their effectiveness. In this experiment, the signaling pathways Akt (pSer473), p70S6K (pThr412), NFkB (p65-pSer536), and CREB (pSer133) were not activated (Table 8). The stress-activated signaling pathways ERK/MAP kinase 1/2 (pThr185/pTyr187), JNK (pThr183/pTyr185), and p38 (pThr180/pTyr182) were activated for these compounds.
(§7) We used a MILLIPLEX MAP Multi-Pathway Magnetic Bead 9-Plex-Cell Signaling Multiplex Assay kit (Merck/Millipore), according to the manufacturer’s protocol. A431 cells were cultured in DMEM with 10% FBS in 24-well plates. Compounds were added to the subconfluent cells at a concentration of 10 μM in DMEM medium for 1 h. Each compound was added in 5 experimental repeats. Cell lysates were prepared with lysis buffer (Millipore) with protease inhibitors (Complete, Roche); the protein concentration in the lysates was determined by the Lowry method. In samples equalized in protein concentration, the active forms of kinase cascades were determined using a Bio-Plex 200 fluorescent analyzer (Bio-Rad).

JNK (pThr183/pTyr185) = assay: MILLIPLEX MAP 9-Plex, JNK active form in A431 lysates; type: cell-based, human; conditions: 10 μM; for JNK (pThr183/pTyr185) fluorescence intensity: A431 cell lysates, 1 h, M ± mx, control 50.9 ± 10.5; for activation of signaling pathway JNK (pThr183/pTyr185), in words: A431 cells
From the text: as §5, §6, §7

STAT3 (pSer727) = assay: MILLIPLEX MAP 9-Plex, STAT3 active form in A431 lysates; type: cell-based, human; conditions: 10 μM; for STAT3 (pSer727) fluorescence intensity: A431 cell lysates, 1 h, M ± mx, control 70.7 ± 18.3
From the text: as §5, §6, §7

[1] = tested on: CMT № 2 (Malignant Schwannoma); assay: MTT cytotoxicity, primary culture of soft tissue sarcoma CMT № 2; type: cell-based; conditions: Homo sapiens, 48 h
From the text: It is believed that such cultures have a molecular profile that corresponds more with cells from the human body, in comparison with that of stable cultures of tumor cells (Table 3).
as §1, §2
as §3, with “Then, MTT reagent (PanEko, Moscow, Russia) was added to the wells at a concentration of 5 mg/mL in a volume of 20 μL per well. After 1.5–2 h, the medium with the reagent was removed, and the precipitate of the crystals of formazan was dissolved in 60 μL of DMSO.” left out
Based on the results of the experiments, a schedule was plotted of the dependence of the percentage of surviving cells (from control) on the concentration of the compound, and the sought concentration IC50 was calculated. […]

For `CCCCC[C@@H]1OC2=C(C(=O)N(OC)/C2=C\n2cnnc2)C(n2cnnc2)[C@@]1(C)O` (stereo partly shown) [Compound 10], the “IC50 value, HCT-116” value (HCT-116; adhesive tumor culture) was “not active”, the IC50 (MCF-7) was 49 ± 5.3 µM and the “IC50 value, PC3” value (PC3; adhesive tumor culture) was “not active”. For the same compound, the IC50 (NCI-H929) was 5600 ± 700 nM, the IC50 (THP-1) was 42000 ± 5200 nM and the IC50 (K562) was 45 ± 5.4 µM. For the same compound, the “Akt (pSer473) fluorescence intensity” value (Akt (pSer473)) was 142.1 ± 9.5 *↑ rel. units, the “JNK (pThr183/pTyr185) fluorescence intensity” value (JNK (pThr183/pTyr185)) was 157.2 ± 15.4 *↑ rel. units and the “activation of signaling pathway JNK (pThr183/pTyr185), in words” value (from here on “activation … (pThr183/pTyr185), in words”) (JNK (pThr183/pTyr185)) was “only slightly activated”. For the same compound, the “STAT3 (pSer727) fluorescence intensity” value (STAT3 (pSer727)) was 178.9 ± 13.4 *↑ rel. units.
For `C=C1C2=C(C(=O)N1OC)[C@@H](N(C)C)[C@@](C)(O)[C@H](CCCCC)O2` [Compound 2, (2S,3R,4R)-4-(dimethylamino)-3-hydroxy-6-methoxy-3-methyl-7-methylene-2-pentyl-3,4,6,7-tetrahydropyrano[2,3-c]pyrrol-5(2H)-one], the IC50 (HCT-116) was 4.2 ± 0.2 µM, the IC50 (MCF-7) was 3 ± 0.8 µM and the IC50 (PC3) was 5.9 ± 3 µM. For the same compound, the IC50 (NCI-H929) was 500 ± 100 nM, the IC50 (THP-1) was 900 ± 300 nM and the IC50 (K562) was 2.4 ± 0.7 µM. The IC50 [1] was 1900 ± 500 nM, the “Akt (pSer473) fluorescence intensity” value (Akt (pSer473)) was 132.4 ± 17.9 rel. units and the “JNK (pThr183/pTyr185) fluorescence intensity” value (JNK (pThr183/pTyr185)) was 559.2 ± 31.5 *↑ rel. units. For the same compound, the “activation … (pThr183/pTyr185), in words” value (JNK (pThr183/pTyr185)) was “maximum degree of activation”, the “STAT3 (pSer727) fluorescence intensity” value (STAT3 (pSer727)) was 272.3 ± 50.5 *↑ rel. units and the “activation of transcription factor STAT3 (pSer727), in words” value (STAT3 (pSer727); A431 cells) was “slightly activated”.
Compound `C=C1C2=C(C(=O)N1OC)[C@@H](N(CCCC)CCCC)[C@@](C)(O)[C@H](CCCCC)O2` [Compound 5, (2S,3R,4R)-4-(dibutylamino)-3-hydroxy-6-methoxy-3-methyl-7-methylene-2-pentyl-3,4,6,7-tetrahydropyrano[2,3-c]pyrrol-5(2H)-one] has an IC50 (HCT-116) of 12 ± 0.9 µM, an IC50 (MCF-7) of 7.4 ± 0.5 µM and an IC50 (PC3) of 9.4 ± 1 µM. It also gave an IC50 (NCI-H929) of 2900 ± 300 nM, an IC50 (THP-1) of 8200 ± 600 nM and an IC50 (K562) of 6.5 ± 0.5 µM. For the same compound, the “Akt (pSer473) fluorescence intensity” value (Akt (pSer473)) was 100.9 ± 11.7 rel. units, the “JNK (pThr183/pTyr185) fluorescence intensity” value (JNK (pThr183/pTyr185)) was 83.1 ± 8.3 *↑ rel. units and the “activation … (pThr183/pTyr185), in words” value (JNK (pThr183/pTyr185)) was “only slightly activated”. For the same compound, the “STAT3 (pSer727) fluorescence intensity” value (STAT3 (pSer727)) was 123.4 ± 8.3 *↑ rel. units.
Compound `C=C1C2=C(C(=O)N1OC)[C@@H](N(CC)CCO)[C@@](C)(O)[C@H](CCCCC)O2` [Compound 9, (2S,3R,4R)-4-[ethyl(2-hydroxyethyl)amino]-3-hydroxy-6-methoxy-3-methyl-7-methylene-2-pentyl-3,4,6,7-tetrahydropyrano[2,3-c]pyrrol-5(2H)-one] has an IC50 (HCT-116) of 3.9 ± 0.1 µM, an IC50 (MCF-7) of 2.9 ± 1 µM and an IC50 (PC3) of 7.8 ± 0.1 µM. The IC50 (NCI-H929) was 600 ± 200 nM, the IC50 (THP-1) was 1700 ± 200 nM and the IC50 (K562) was 3.7 ± 0.5 µM. For the same compound, the IC50 [1] was 4100 ± 1100 nM, the “Akt (pSer473) fluorescence intensity” value (Akt (pSer473)) was 88.8 ± 10.7 rel. units and the “JNK (pThr183/pTyr185) fluorescence intensity” value (JNK (pThr183/pTyr185)) was 117.9 ± 15.1 *↑ rel. units. For the same compound, the “STAT3 (pSer727) fluorescence intensity” value (STAT3 (pSer727)) was 151.5 ± 28.7 rel. units.
Compound `C=C1C2=C(C(=O)N1OC)[C@@H](N1CCCC1)[C@@](C)(O)[C@H](CCCCC)O2` [Compound 1] has an IC50 (HCT-116) of 7.6 ± 0.9 µM, an IC50 (MCF-7) of 3.9 ± 0.8 µM and an IC50 (PC3) of 7.6 ± 0.9 µM. The IC50 (NCI-H929) was 700 ± 200 nM, the IC50 (THP-1) was 1500 ± 400 nM and the IC50 (K562) was 3.8 ± 0.6 µM. For the same compound, the IC50 [1] was 2500 ± 900 nM, the “Akt (pSer473) fluorescence intensity” value (Akt (pSer473)) was 112.6 ± 12.0 rel. units and the “JNK (pThr183/pTyr185) fluorescence intensity” value (JNK (pThr183/pTyr185)) was 239.9 ± 23.9 *↑ rel. units. For the same compound, the “STAT3 (pSer727) fluorescence intensity” value (STAT3 (pSer727)) was 163.0 ± 20.7 *↑ rel. units.
